Reference: patent US5288720A, “Angiotensin II receptor blocking 2,3,6 substituted quinazolinones” (American Cyanamid Company, priority 1993, dated 1994)
Blank lines part the entries; values can stand above or below the molecule they belong to.

Columns and labels:
Angiotensin II Receptor = target: T1, Angiotensin II Receptor (Bos taurus, UniProt P25104); assay: Receptor Binding Assay: Binding of [^125 I](Sar^1,Ile^8)AngII to beef adrenal cortex membranes; conditions: 60 min, room temperature
T1 construct: The brownish tissue forming the adrenal cortex is scraped off and finely minced with scissors before homogenization; from tissue; host or cells: beef adrenal cortex, microsomal membranes (100,000×g pellet); fresh glands from a local slaughter house (Maxwell-Cohen)
T1 sequence (P25104 1-359): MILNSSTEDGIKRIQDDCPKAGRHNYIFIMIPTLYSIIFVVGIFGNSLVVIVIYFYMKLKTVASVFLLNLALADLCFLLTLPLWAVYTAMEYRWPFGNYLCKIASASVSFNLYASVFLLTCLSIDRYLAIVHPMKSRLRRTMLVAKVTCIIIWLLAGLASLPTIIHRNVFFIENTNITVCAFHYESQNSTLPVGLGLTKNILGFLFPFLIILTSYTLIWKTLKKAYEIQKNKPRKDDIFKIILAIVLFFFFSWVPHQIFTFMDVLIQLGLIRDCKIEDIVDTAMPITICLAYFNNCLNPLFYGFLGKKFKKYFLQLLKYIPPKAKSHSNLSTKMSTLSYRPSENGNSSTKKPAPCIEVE
From the text: Beef adrenals are obtained from a local slaughter house (Maxwell-Cohen). [^125 […]. 2200 Ci/mmole, is purchased from Dupont (NEN®, Boston, Mass.). All unlabeled AngII analogs, Dimethylsulfoxide (DMSO), nucleotides, bovine serum albumin (BSA) are purchased from Sigma Chemical Co., St. Louis, Mo. U.S.A. […] Approximately sixteen (16) to twenty (20) beef adrenal glands are processed as follows: fresh adrenal glands received on crushed ice are cleaned of fatty tissues and the tough membranes encapsulating the glands are removed and discarded. The brownish tissue forming the adrenal cortex is scraped off and finely minced with scissors before homogenization. Care is taken to avoid contamination with medullary tissue during dissection. The scraped cortices are suspended in twenty volumes of an ice-cold buffer medium consisting of 10 mM Tris.HCl (pH 7.4 at 22° C.) and containing 1.0 mM EDTA and 0.2M sucrose. Unless otherwise indicated, all subsequent operations are done at 4° C. […] The homogenate is centrifuged first at low speed (3,000×g) for 10 minutes. […] This P2 pellet is discarded and the liquid phase is carefully decanted off in clean centrifuge tubes and recentrifuged at high speed (100,000×g) for 60 minutes. The translucent final pellet is harvested and combined in a small volume (20-50.0 ml) of 50.0 mM Tris.HCl buffer, pH 7.2. A 100 ul aliquot is withdrawn and the protein content of the preparation is determined by the Lowry's method (Lowry, O. H., Rosebrough, […]. and Randall, R. J., Protein measurement with Folin phenol reagent. J. Biol. Chem., […], 265-275, 1951). The pelleted membrane is reconstituted in 50.0 mM Tris.HCl buffer containing 0.1 mM of phenylmethylsulfonyl fluoride (PMSF) to give approximately a protein concentration of 2.5 mg per ml of tissue suspension. […] Receptor Binding Assay: […] In competition studies, experimental compounds are diluted in dimethylsulfoxide (DMSO) and added in 20 ul to wells before the introduction of tissue membranes. […] Assays are performed in triplicate. The wells are left undisturbed for 60 minutes at room temperature. Following incubation, all wells are harvested at once with a Brandel® Harvester especially designed for a 96 well plate (Brandel® Biomedical Research & Development Labs. Inc., Gaithersburg, Md., U.S.A.). The filter discs are washed with 10×1.0 ml of cold 0.9% NaCl to remove unbound ligand. Presoaking the filter sheet in 0.1% polyethyleneimine in normal saline (PEI/Saline) greatly reduces the radioactivity retained by the filter blanks. This method is routinely used. The filters are removed from the filter grid and counted in a Parkard® Cobra Gamma Counter for 1 minutes. (Packard Instrument Co., Downers Grove, Ill, U.S.A.). The binding data are analyzed by the non-linear interactive "LUNDON-1" program (LUNDON SOFTWARE Inc., Cleveland, Ohio U.S.A.).

[1] = tested on: ANGIOTENSIN II VASOPRESSOR RESPONSE; assay: AII Challenge: blockade of angiotensin II vasopressor response in conscious SHR; assay type: in vivo, rat (Conscious Male Okamoto-Aoki SHR); conditions: SHR n=2
From the text: By administering a compound of this invention to a rat, and then challenging with angiotensin II, a blockage of the vasopressor response is realized.
Conscious Male Okamoto-Aoki SHR, 16-20 weeks old, weighing approximately 330 g are purchased from Charles River Labs (Wilmington, Mass.). Conscious rats are restrained in a supine position with elastic tape. The area at the base of the tail is locally anesthetized by subcutaneous infiltration with 2% procaine. The ventral caudal artery and vein are isolated, and a cannula made of polyethylene (PE) 10-20 tubing (fused together by heat) is passed into the lower abdominal aorta and vena cava, respectively. The cannula is secured, heparinized (1,000 I.U./ml), sealed and the wound is closed. The animals are placed in plastic restraining cages in an upright position. The cannula is attached to a Statham P23Db pressure transducer, and pulsatile blood pressure is recorded to 10-15 minutes with a Gould Brush recorder. (Chan et al., (Drug Development Res., 18:75-94, 1989).
Angiotensin II (human sequence, Sigma Chem. Co., St. Louis, MO) of 0.05 and 0.1 ug/kg i.v. is injected into all rats (predosing response). Then a test compound, vehicle or a known angiotensin II antagonist is administered i.v., i.p. or orally to each set of rats. The two doses of angiotensin II are given to each rat again at 30, 60, 90, 120, 180, 240 and 300 minutes post dosing the compound or vehicle. The vasopressor response of angiotensin II is measured for the increase in systolic blood pressure in mmHg. The percentage of antagonism or blockade of the vasopressor response of angiotensin II by a compound is calculated using the vasopressor response (increase in systolic blood pressure) of angiotensin II of each rat predosing the compound as 100%. A compound is considered active if at 30 mg/kg i.v. it antagonized at least 50% of the response.

[2] = 10 mg/kg i.v., AII 0.05 mcg/kg IV, 30 min post dose
[3] = 10 mg/kg i.v., AII 0.05 mcg/kg IV, 60 min post dose
[4] = 10 mg/kg i.v., AII 0.05 mcg/kg IV, 90 min post dose
[5] = 10 mg/kg i.v., AII 0.05 mcg/kg IV, 120 min post dose
[6] = 10 mg/kg i.v., AII 0.05 mcg/kg IV, 180 min post dose
[7] = 10 mg/kg i.v., AII 0.05 mcg/kg IV, 240 min post dose
[8] = 10 mg/kg i.v., AII 0.05 mcg/kg IV, 300 min post dose
[9] = 10 mg/kg i.v., AII 0.1 mcg/kg IV, 30 min post dose
[10] = 10 mg/kg i.v., AII 0.1 mcg/kg IV, 60 min post dose
[11] = 10 mg/kg i.v., AII 0.1 mcg/kg IV, 90 min post dose
[12] = 10 mg/kg i.v., AII 0.1 mcg/kg IV, 120 min post dose
[13] = 10 mg/kg i.v., AII 0.1 mcg/kg IV, 180 min post dose
[14] = 10 mg/kg i.v., AII 0.1 mcg/kg IV, 240 min post dose
[15] = 10 mg/kg i.v., AII 0.1 mcg/kg IV, 300 min post dose
[16] = 3 mg/kg i.v., AII 0.05 mcg/kg IV, 30 min post dose
[17] = 3 mg/kg i.v., AII 0.05 mcg/kg IV, 60 min post dose
[18] = 3 mg/kg i.v., AII 0.05 mcg/kg IV, 90 min post dose
[19] = 3 mg/kg i.v., AII 0.05 mcg/kg IV, 120 min post dose
[20] = 3 mg/kg i.v., AII 0.05 mcg/kg IV, 180 min post dose
[21] = 3 mg/kg i.v., AII 0.05 mcg/kg IV, 240 min post dose
[22] = 3 mg/kg i.v., AII 0.05 mcg/kg IV, 300 min post dose
[23] = 3 mg/kg i.v., AII 0.1 mcg/kg IV, 30 min post dose
[24] = 3 mg/kg i.v., AII 0.1 mcg/kg IV, 60 min post dose
[25] = 3 mg/kg i.v., AII 0.1 mcg/kg IV, 90 min post dose
[26] = 3 mg/kg i.v., AII 0.1 mcg/kg IV, 120 min post dose
[27] = 3 mg/kg i.v., AII 0.1 mcg/kg IV, 180 min post dose
[28] = 3 mg/kg i.v., AII 0.1 mcg/kg IV, 240 min post dose
[29] = 3 mg/kg i.v., AII 0.1 mcg/kg IV, 300 min post dose

IC50 (Angiotensin II Receptor): 62 nM
SMILES: CCCCc1nc2ccc(C(C)(O)C3CCCN(C)C3=O)cc2c(=O)n1Cc1ccc(-c2ccccc2-c2nn[nH]n2)cc1 (single isomer, unassigned; isomer 1) [Example 52, 2-Butyl-6-[1-hydroxy(1-methyl-2-oxo-3-piperidinyl)ethyl]-3-[[2'-(1H-tetrazol-5-yl)-[1,1'-biphenyl]-4-yl]methyl]-4(3H)-quinazolinone, isomer 1]
% Inhibition of AII vasopressor response [1, 2]: 71%
Average Change (systolic blood pressure response to AII) [1, 2]: 12.5 mmHg
% Inhibition of AII vasopressor response [1, 3]: 94%
Average Change (systolic blood pressure response to AII) [1, 3]: 2.5 mmHg
% Inhibition of AII vasopressor response [1, 4]: 76%
Average Change (systolic blood pressure response to AII) [1, 4]: 10 mmHg
% Inhibition of AII vasopressor response [1, 5]: 59%
Average Change (systolic blood pressure response to AII) [1, 5]: 17.5 mmHg
% Inhibition of AII vasopressor response [1, 6]: 47%
Average Change (systolic blood pressure response to AII) [1, 6]: 22.5 mmHg
% Inhibition of AII vasopressor response [1, 7]: 29%
Average Change (systolic blood pressure response to AII) [1, 7]: 30 mmHg
% Inhibition of AII vasopressor response [1, 8]: 47%
Average Change (systolic blood pressure response to AII) [1, 8]: 22.5 mmHg
% Inhibition of AII vasopressor response [1, 9]: 85%
Average Change (systolic blood pressure response to AII) [1, 9]: 7.5 mmHg
% Inhibition of AII vasopressor response [1, 10]: 90%
Average Change (systolic blood pressure response to AII) [1, 10]: 5 mmHg
% Inhibition of AII vasopressor response [1, 11]: 70%
Average Change (systolic blood pressure response to AII) [1, 11]: 15 mmHg
% Inhibition of AII vasopressor response [1, 12]: 80%
Average Change (systolic blood pressure response to AII) [1, 12]: 10 mmHg
% Inhibition of AII vasopressor response [1, 13]: 55%
Average Change (systolic blood pressure response to AII) [1, 13]: 22.5 mmHg
% Inhibition of AII vasopressor response [1, 14]: 45%
Average Change (systolic blood pressure response to AII) [1, 14]: 27.5 mmHg
% Inhibition of AII vasopressor response [1, 15]: 45%
Average Change (systolic blood pressure response to AII) [1, 15]: 27.5 mmHg

IC50 (Angiotensin II Receptor): 110 nM
SMILES: CCCCc1nc2ccc(C(O)C3CCCS3(=O)=O)cc2c(=O)n1Cc1ccc(-c2ccccc2-c2nn[nH]n2)cc1 (single isomer, unassigned; isomer 2) [Example 16, 2-Butyl-6-[hydroxy(tetrahydro-2-thienyl)methyl-3-[2'-(1H-tetrazol-5-yl)[1,1'biphenyl]-4-yl]methyl]-4(3H)-quinazolinone S, S-dioxide, isomer 2]
% Inhibition of AII vasopressor response [1, 16]: 72%
Average Change (systolic blood pressure response to AII) [1, 16]: 12.5 mmHg
% Inhibition of AII vasopressor response [1, 17]: 30%
Average Change (systolic blood pressure response to AII) [1, 17]: 31.5 mmHg
% Inhibition of AII vasopressor response [1, 18]: 61%
Average Change (systolic blood pressure response to AII) [1, 18]: 17.5 mmHg
% Inhibition of AII vasopressor response [1, 19]: 71%
Average Change (systolic blood pressure response to AII) [1, 19]: 13 mmHg
% Inhibition of AII vasopressor response [1, 20]: 39%
Average Change (systolic blood pressure response to AII) [1, 20]: 27.5 mmHg
% Inhibition of AII vasopressor response [1, 21]: 39%
Average Change (systolic blood pressure response to AII) [1, 21]: 27.5 mmHg
% Inhibition of AII vasopressor response [1, 22]: 33%
Average Change (systolic blood pressure response to AII) [1, 22]: 30 mmHg
% Inhibition of AII vasopressor response [1, 23]: 43%
Average Change (systolic blood pressure response to AII) [1, 23]: 20 mmHg
% Inhibition of AII vasopressor response [1, 24]: 64%
Average Change (systolic blood pressure response to AII) [1, 24]: 12.5 mmHg
% Inhibition of AII vasopressor response [1, 25]: 36%
Average Change (systolic blood pressure response to AII) [1, 25]: 22.5 mmHg
% Inhibition of AII vasopressor response [1, 26]: 50%
Average Change (systolic blood pressure response to AII) [1, 26]: 17.5 mmHg
% Inhibition of AII vasopressor response [1, 27]: 14%
Average Change (systolic blood pressure response to AII) [1, 27]: 30 mmHg
% Inhibition of AII vasopressor response [1, 28]: 0%
Average Change (systolic blood pressure response to AII) [1, 28]: 35 mmHg
% Inhibition of AII vasopressor response [1, 29]: -21%
Average Change (systolic blood pressure response to AII) [1, 29]: 42.5 mmHg
